From ChEMBL document CHEMBL1139533, “Structure-activity relationship studies of a series of antiviral and antibacterial aglycon derivatives of the glycopeptide antibiotics vancomycin, eremomycin, and dechloroeremomycin” (J Med Chem, 2005)
Converted amounts (≈) assume the structure as drawn.

Legend:
[1] = test system: Enterococcus faecium; assay: Minimum inhibitory concentration against glycopeptide susceptible enterococci 568 Enterococcus faecium; format: functional
[2] = test system: Staphylococcus aureus; assay: Minimum inhibitory concentration against glycopeptide intermediate-resistant 3797 Staphylococcus aureus; format: functional
[3] = test system: Staphylococcus epidermidis; assay: Minimum inhibitory concentration against 533 Staphylococcus epidermidis; format: functional
[4] = test system: Enterococcus faecium; assay: Minimum inhibitory concentration against glycopeptide resistant enterococci 569 Enterococcus faecium; format: functional
[5] = test system: Staphylococcus haemolyticus; assay: Minimum inhibitory concentration against 602 Staphylococcus haemolyticus; format: functional
[6] = test system: Staphylococcus aureus; assay: Minimum inhibitory concentration against glycopeptide intermediate-resistant 3798 Staphylococcus aureus; format: functional
[7] = test system: Enterococcus faecalis; assay: Minimum inhibitory concentration against glycopeptide resistant enterococci 560 Enterococcus faecalis; format: functional
[8] = test system: Enterococcus faecalis; assay: Minimum inhibitory concentration against 559 glycopeptide susceptible enterococci Enterococcus faecalis; format: functional
[9] = test system: Human immunodeficiency virus 1; assay: Effective concentration against human immunodeficiency virus type 1; format: functional, organism-based
[10] = test system: CCRF-CEM; assay: Cytostatic activity to the compound against CEM cell line; format: functional, cell-based; conditions: Homo sapiens
[11] = test system: Moloney murine sarcoma virus; assay: Effective concentration against Moloney sarcoma virus; format: functional, organism-based, Viruses
[12] = test system: L1210; assay: Cytostatic activity against L1210 cell line; format: functional, cell-based; conditions: Mus musculus
[13] = test system: MOLT-4; assay: Cytostatic activity to the compound against Molt4/C8 cell line; format: functional, cell-based; conditions: Homo sapiens
[14] = test system: Human immunodeficiency virus 2; assay: Effective concentration against human immunodeficiency virus type 2; format: functional, organism-based
[15] = test system: C3H/3T3; assay: Minimal cytotoxic concentration to cause an alteration in C3H/3T3 cell line morphology; format: functional; conditions: Mus musculus

| SMILES | MIC [1] [µg/mL] | MIC [2] [µg/mL] | MIC [3] [µg/mL] | MIC [4] [µg/mL] | MIC [5] [µg/mL] | MIC [6] [µg/mL] | MIC [7] [µg/mL] | MIC [8] [µg/mL] | EC50 [9] [µM] | IC50 [10] [µM] | EC50 [11] [µM] | IC50 [12] [µM] | IC50 [13] [µM] | EC50 [14] [µM] | MCC [15] [µg/mL] |
| --- | --- | --- | --- | --- | --- | --- | --- | --- | --- | --- | --- | --- | --- | --- | --- |
| NC(=O)C[C@@H]1NC(=O)[C@H](N)[C@H](O)c2ccc(cc2)Oc2cc3cc(c2O)Oc2ccc(cc2)[C@@H](O)[C@@H]2NC(=O)[C@H](NC(=O)[C@@H]3NC1=O)c1ccc(O)c(c1)-c1c(O)cc(O)cc1[C@@H](C(=O)O)NC2=O | > 128 | > 128 | > 128 | > 128 | > 128 | > 128 | > 128 | > 128 | – | – | – | – | – | – | – |
| CN[C@H](CC(C)C)C(=O)N[C@H]1C(=O)N[C@@H](CC(N)=O)C(=O)N[C@H]2C(=O)N[C@H]3C(=O)N[C@H](C(=O)N[C@H](C(=O)O)c4cc(O)cc(O)c4-c4cc3ccc4O)[C@H](O)c3ccc(c(Cl)c3)Oc3cc2cc(c3O)Oc2ccc(cc2Cl)[C@H]1O | – | – | – | – | – | – | – | – | 65 | > 500 | 100 | > 500 | > 500 | ≥ 250 | – |
| CN[C@H](CC(C)C)C(=O)N[C@H]1C(=O)N[C@@H](CC(N)=O)C(=O)N[C@H]2C(=O)N[C@H]3C(=O)N[C@H](C(=O)N[C@H](C(=O)NCC45CC6CC(CC(C6)C4)C5)c4cc(O)cc(O)c4-c4cc3ccc4O)[C@H](O)c3ccc(c(Cl)c3)Oc3cc2cc(c3O)Oc2ccc(cc2Cl)[C@H]1O | 2 (≈ 1.55 µM) | 2 (≈ 1.55 µM) | 2 (≈ 1.55 µM) | 16 (≈ 12.4 µM) | 2 (≈ 1.55 µM) | 2 (≈ 1.55 µM) | 16 (≈ 12.4 µM) | 1 (≈ 0.774 µM) | – | – | – | – | – | – | ≥ 100 |
| CN[C@H](CC(C)C)C(=O)N[C@H]1C(=O)N[C@@H](CC(N)=O)C(=O)N[C@H]2C(=O)N[C@H]3C(=O)N[C@H](C(=O)N[C@H](C(=O)NCCCCCCCCCCN)c4cc(O)cc(O)c4-c4cc3ccc4O)[C@H](O)c3ccc(c(Cl)c3)Oc3cc2cc(c3O)Oc2ccc(cc2Cl)[C@H]1O | – | – | – | – | – | – | – | – | 2.5 | ≥ 250 | 5 | > 250 | 228 | 18.3 | – |
| NC(=O)C[C@@H]1NC(=O)[C@H](N)[C@H](O)c2ccc(c(Cl)c2)Oc2cc3cc(c2O)Oc2ccc(cc2Cl)[C@@H](O)[C@@H]2NC(=O)[C@H](NC(=O)[C@@H]3NC1=O)c1ccc(O)c(c1)-c1c(O)cc(O)cc1[C@@H](C(=O)O)NC2=O | > 128 | > 128 | > 128 | > 128 | > 128 | > 128 | > 128 | > 128 | ≥ 125 | ≥ 250 | 88 | > 250 | > 250 | ≥ 125 | > 100 |
| CN[C@H](CC(C)C)C(=O)N[C@H]1C(=O)N[C@@H](CC(N)=O)C(=O)N[C@H]2C(=O)N[C@H]3C(=O)N[C@H](C(=O)N[C@H](C(=O)NC4C5CC6CC(C5)CC4C6)c4cc(O)cc(O)c4-c4cc3ccc4O)[C@H](O)c3ccc(cc3)Oc3cc2cc(c3O)Oc2ccc(cc2Cl)[C@H]1O (some centres undefined) | 16 (≈ 12.9 µM) | 16 (≈ 12.9 µM) | 16 (≈ 12.9 µM) | 32 (≈ 25.7 µM) | 16 (≈ 12.9 µM) | 16 (≈ 12.9 µM) | 32 (≈ 25.7 µM) | 8 (≈ 6.44 µM) | 8.5 | > 250 | > 4 | > 250 | > 250 | 20 | 20 |
| NC(=O)C[C@@H]1NC(=O)[C@H](N)[C@H](O)c2ccc(c(Cl)c2)Oc2cc3cc(c2O)Oc2ccc(cc2)[C@@H](O)[C@@H]2NC(=O)[C@H](NC(=O)[C@@H]3NC1=O)c1ccc(O)c(c1)-c1c(O)cc(O)cc1[C@@H](C(=O)O)NC2=O | > 128 | > 128 | > 128 | > 128 | > 128 | > 128 | > 128 | > 128 | 115 | > 250 | > 100 | > 250 | > 250 | > 250 | ≥ 100 |
| CN[C@H](CC(C)C)C(=O)N[C@H]1C(=O)N[C@@H](CC(N)=O)C(=O)N[C@H]2C(=O)N[C@H]3C(=O)N[C@H](C(=O)N[C@H](C(=O)NC4C5CC6CC(C5)CC4C6)c4cc(O)cc(O)c4-c4cc3ccc4O)[C@H](O)c3ccc(cc3)Oc3cc2cc(c3O)Oc2ccc(cc2)[C@H]1O (some centres undefined) | 8 (≈ 6.62 µM) | 16 (≈ 13.2 µM) | 16 (≈ 13.2 µM) | 32 (≈ 26.5 µM) | 16 (≈ 13.2 µM) | 16 (≈ 13.2 µM) | 32 (≈ 26.5 µM) | 16 (≈ 13.2 µM) | 8.5 | 185 | 14 | 129 | 185 | 21.7 | 100 |
